Reference: ChEMBL document CHEMBL1201862, “PubChem BioAssay data set” (2004)
Values joined by “and” are separate entries in the source; they are usually repeats but may differ in a detail not shown here. Equal values may be shown once.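 96-well plates; 48 h exposure; 5 concentrations. Endpoints by linear interpolation between flanking doses. Not reached: highest tested concentration assigned. The concentration for 50% growth inhibition is given as GI50.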 Active and inactive are the calls of the source. Rule as the data show it: active = GI50 up to about 1.1 µM and inactive = higher.

Assays:
Assay in all cases: DTP human tumour cell line panel, 48 h
HL-60 = system: HL-60
SF-268 = system: SF-268
HOP-62 = system: HOP-62
786-0 = system: 786-0
ACHN = system: ACHN
UO-31 = system: UO-31
OVCAR-5 = system: OVCAR-5
KM12 = system: KM12
SK-MEL-5 = system: SK-MEL-5
EKVX = system: EKVX
HCC 2998 = system: HCC 2998
NCI-H226 = system: NCI-H226
OVCAR-3 = system: OVCAR-3
UACC-257 = system: UACC-257
IGROV-1 = system: IGROV-1
SNB-75 = system: SNB-75
SN12C = system: SN12C
CAKI-1 = system: CAKI-1
TK-10 = system: TK-10
SF-539 = system: SF-539
LOX IMVI = system: LOX IMVI
KM-20L2 = system: KM-20L2
SF-295 = system: SF-295
A498 = system: A498
SK-OV-3 = system: SK-OV-3
DMS-273 = system: DMS-273
RPMI-8226 = system: RPMI-8226
SK-MEL-28 = system: SK-MEL-28
OVCAR-8 = system: OVCAR-8
RXF 393 = system: RXF 393
HT-29 = system: HT-29
M14 = system: M14
K562 = system: K562
HCT-15 = system: HCT-15
Malme-3M = system: Malme-3M
MOLT-4 = system: MOLT-4
NCI-H23 = system: NCI-H23
SW-620 = system: SW-620
DLD-1 = system: DLD-1
NCI-H522 = system: NCI-H522
HOP-18 = system: HOP-18
SNB-19 = system: SNB-19
A549 = system: A549
UACC-62 = system: UACC-62
OVCAR-4 = system: OVCAR-4
SK-MEL-2 = system: SK-MEL-2
XF498 = system: XF498
CCRF-CEM = system: CCRF-CEM
NCI-H460 = system: NCI-H460
RXF 631 = system: RXF 631
COLO 205 = system: COLO 205
M19-MEL = system: M19-MEL
SNB-78 = system: SNB-78
U-251 = system: U-251
SR = system: SR
LXFL 529 = system: LXFL 529
HOP-92 = system: HOP-92
DMS-114 = system: DMS-114
HCT-116 = system: HCT-116

For `O=S1(=O)c2ccccc2NC(c2ccc3ccccc3c2)CC1c1ccccc1F` (stereo unspecified), the GI50 (HL-60) was > 100 µM (inactive), the GI50 (SF-268) was > 100 µM (inactive) and the GI50 (HOP-62) was > 100 µM (inactive). For the same molecule, the GI50 (786-0) was > 100 µM (inactive), the GI50 (ACHN) was > 100 µM (inactive) and the GI50 (UO-31) was > 100 µM (inactive). For the same molecule, the GI50 (OVCAR-5) was > 100 µM (inactive), the GI50 (KM12) was > 100 µM (inactive) and the GI50 (SK-MEL-5) was > 100 µM (inactive). For the same molecule, the GI50 (EKVX) was > 100 µM (inactive), the GI50 (HCC 2998) was > 100 µM (inactive) and the GI50 (NCI-H226) was > 100 µM (inactive). The GI50 (OVCAR-3) was > 100 µM (inactive), the GI50 (UACC-257) was > 100 µM (inactive) and the GI50 (IGROV-1) was > 100 µM (inactive). For the same molecule, the GI50 (SNB-75) was > 100 µM (inactive), the GI50 (SN12C) was > 100 µM (inactive) and the GI50 (CAKI-1) was > 100 µM (inactive). The GI50 (TK-10) was > 100 µM (inactive), the GI50 (SF-539) was > 100 µM (inactive) and the GI50 (LOX IMVI) was > 100 µM (inactive). The GI50 (KM-20L2) was > 100 µM (inactive), the GI50 (SF-295) was > 100 µM (inactive) and the GI50 (A498) was > 100 µM (inactive). The GI50 (SK-OV-3) was > 100 µM (inactive), the GI50 (DMS-273) was > 100 µM (inactive) and the GI50 (RPMI-8226) was > 100 µM (inactive). The GI50 (SK-MEL-28) was > 100 µM (inactive), the GI50 (OVCAR-8) was > 100 µM (inactive) and the GI50 (RXF 393) was > 100 µM (inactive). The GI50 (HT-29) was > 100 µM (inactive), the GI50 (M14) was > 100 µM (inactive) and the GI50 (K562) was > 100 µM (inactive). For the same molecule, the GI50 (HCT-15) was greater than 100 µM, the GI50 (Malme-3M) was > 100 µM (inactive) and the GI50 (MOLT-4) was > 100 µM (inactive). For the same molecule, the GI50 (NCI-H23) was > 100 µM (inactive), the GI50 (SW-620) was > 100 µM (inactive) and the GI50 (DLD-1) was > 100 µM (inactive). For the same molecule, the GI50 (NCI-H522) was > 100 µM (inactive), the GI50 (HOP-18) was 22.1 µM (inactive) and the GI50 (SNB-19) was > 100 µM (inactive). The GI50 (A549) was > 100 µM (inactive), the GI50 (UACC-62) was > 100 µM (inactive) and the GI50 (OVCAR-4) was > 100 µM (inactive). The GI50 (SK-MEL-2) was > 100 µM (inactive), the GI50 (XF498) was > 100 µM (inactive) and the GI50 (CCRF-CEM) was > 100 µM (inactive). For the same molecule, the GI50 (NCI-H460) was > 100 µM (inactive), the GI50 (RXF 631) was > 100 µM (inactive) and the GI50 (COLO 205) was > 100 µM (inactive). The GI50 (M19-MEL) was > 100 µM (inactive).

With `CC1OC(OC23C(=O)CC(C)(O)CC2(O)C=CC2=C3C(=O)c3ccc(C4CC(OC5CCC(OC6CC(O)C(O)C(C)O6)C(C)O5)C(O)C(C)O4)c(O)c3C2=O)CCC1O` (stereo unspecified) the GI50 (HL-60) was 4.42 µM (inactive) and 6.03 µM (inactive), the GI50 (SF-268) was 17 µM (inactive) and 16.4 µM (inactive) and the GI50 (HOP-62) was 27 µM (inactive) and 21.5 µM (inactive). For the same molecule, the GI50 (786-0) was 17.4 µM (inactive) and 15.8 µM (inactive), the GI50 (ACHN) was 17 µM (inactive) and 15.7 µM (inactive) and the GI50 (UO-31) was 18 µM (inactive) and 18.4 µM (inactive). The GI50 (OVCAR-5) was 19.1 µM (inactive) and 20.6 µM (inactive), the GI50 (KM12) was 17.5 µM (inactive) and 14.4 µM (inactive) and the GI50 (SK-MEL-5) was 19 µM (inactive) and 16.1 µM (inactive). For the same molecule, the GI50 (EKVX) was 18.7 µM (inactive) and 17.7 µM (inactive), the GI50 (HCC 2998) was 13.9 µM (inactive) and 16.2 µM (inactive) and the GI50 (NCI-H226) was 19.5 µM (inactive) and 18.6 µM (inactive). The GI50 (UACC-257) was 17.9 µM (inactive) and 15.2 µM (inactive), the GI50 (SNB-78) was 17.3 µM (inactive) and 17.7 µM (inactive) and the GI50 (IGROV-1) was 16.5 µM (inactive) and 16.4 µM (inactive). For the same molecule, the GI50 (SNB-75) was 16.3 µM (inactive) and 16.9 µM (inactive), the GI50 (SN12C) was 18.3 µM (inactive) and 16.5 µM (inactive) and the GI50 (CAKI-1) was 19.1 µM (inactive) and 19.8 µM (inactive). The GI50 (TK-10) was 21.6 µM (inactive) and 17.7 µM (inactive), the GI50 (SF-539) was 17.7 µM (inactive) and 17.3 µM (inactive) and the GI50 (U-251) was 16 µM (inactive) and 17.1 µM (inactive). The GI50 (KM-20L2) was 19.1 µM (inactive) and 19.7 µM (inactive), the GI50 (SK-OV-3) was 28.1 µM (inactive) and 17.9 µM (inactive) and the GI50 (RPMI-8226) was 13.2 µM (inactive) and 10 µM (inactive). For the same molecule, the GI50 (SK-MEL-28) was 15.5 µM (inactive) and 14.3 µM (inactive), the GI50 (HT-29) was 12.8 µM (inactive) and 19.5 µM (inactive) and the GI50 (M14) was 18.2 µM (inactive) and 13.8 µM (inactive). The GI50 (K562) was 14.5 µM (inactive) and 9.4 µM (inactive), the GI50 (Malme-3M) was 3.02 µM (inactive) and 1.57 µM (inactive) and the GI50 (MOLT-4) was 5.71 µM (inactive). The GI50 (NCI-H23) was 16.4 µM (inactive) and 18.5 µM (inactive), the GI50 (SR) was > 100 µM (inactive) and the GI50 (SW-620) was 4.86 µM (inactive) and 3.39 µM (inactive). For the same molecule, the GI50 (LXFL 529) was 15.4 µM (inactive) and 11.5 µM (inactive), the GI50 (DLD-1) was 11.1 µM (inactive) and 13.6 µM (inactive) and the GI50 (NCI-H522) was 1.94 µM (inactive) and 2.05 µM (inactive). For the same molecule, the GI50 (HOP-18) was 17.5 µM (inactive) and 17.1 µM (inactive), the GI50 (A549) was 29.6 µM (inactive) and 25.1 µM (inactive) and the GI50 (UACC-62) was 13.8 µM (inactive) and 16.3 µM (inactive). The GI50 (OVCAR-4) was 16.4 µM (inactive) and 19.1 µM (inactive), the GI50 (SK-MEL-2) was 16.7 µM (inactive) and 16.3 µM (inactive) and the GI50 (XF498) was 18.2 µM (inactive) and 18.9 µM (inactive). The GI50 (CCRF-CEM) was 6.65 µM (inactive), the GI50 (NCI-H460) was 19.4 µM (inactive) and 17.6 µM (inactive) and the GI50 (RXF 631) was 12.9 µM (inactive) and 20.1 µM (inactive). The GI50 (COLO 205) was 3.79 µM (inactive) and 2.33 µM (inactive).

In the case of `C#CCNC(=O)NC(CCCNC(=O)OCc1ccccc1)C(=O)OCc1ccccc1` (stereo unspecified), the GI50 (HL-60) is reported as 25.4 µM (inactive), the GI50 (SF-268) is reported as > 100 µM (inactive) and the GI50 (HOP-62) is reported as > 100 µM (inactive). For the same molecule, the GI50 (786-0) was > 100 µM (inactive), the GI50 (ACHN) was > 100 µM (inactive) and the GI50 (UO-31) was > 100 µM (inactive). For the same molecule, the GI50 (OVCAR-5) was > 100 µM (inactive), the GI50 (KM12) was > 100 µM (inactive) and the GI50 (HOP-92) was 19.3 µM (inactive). For the same molecule, the GI50 (SK-MEL-5) was 84.1 µM (inactive), the GI50 (EKVX) was > 100 µM (inactive) and the GI50 (HCC 2998) was > 100 µM (inactive). For the same molecule, the GI50 (NCI-H226) was > 100 µM (inactive), the GI50 (OVCAR-3) was > 100 µM (inactive) and the GI50 (UACC-257) was 27.9 µM (inactive). For the same molecule, the GI50 (SNB-78) was > 100 µM (inactive), the GI50 (IGROV-1) was > 100 µM (inactive) and the GI50 (DMS-114) was > 100 µM (inactive). The GI50 (SNB-75) was 82.4 µM (inactive), the GI50 (SN12C) was > 100 µM (inactive) and the GI50 (CAKI-1) was 33.8 µM (inactive). For the same molecule, the GI50 (TK-10) was > 100 µM (inactive), the GI50 (SF-539) was 50.2 µM (inactive) and the GI50 (LOX IMVI) was 95.1 µM (inactive). For the same molecule, the GI50 (U-251) was > 100 µM (inactive), the GI50 (KM-20L2) was > 100 µM (inactive) and the GI50 (SF-295) was > 100 µM (inactive). For the same molecule, the GI50 (A498) was > 100 µM (inactive), the GI50 (SK-OV-3) was > 100 µM (inactive) and the GI50 (DMS-273) was > 100 µM (inactive). The GI50 (RPMI-8226) was > 100 µM (inactive), the GI50 (SK-MEL-28) was > 100 µM (inactive) and the GI50 (OVCAR-8) was > 100 µM (inactive). The GI50 (RXF 393) was 30.1 µM (inactive), the GI50 (HT-29) was > 100 µM (inactive) and the GI50 (M14) was 24.5 µM (inactive). For the same molecule, the GI50 (K562) was > 100 µM (inactive), the GI50 (HCT-15) was greater than 100 µM and the GI50 (Malme-3M) was 51.9 µM (inactive). The GI50 (MOLT-4) was > 100 µM (inactive), the GI50 (NCI-H23) was > 100 µM (inactive) and the GI50 (SR) was > 100 µM (inactive). For the same molecule, the GI50 (SW-620) was > 100 µM (inactive), the GI50 (LXFL 529) was > 100 µM (inactive) and the GI50 (DLD-1) was > 100 µM (inactive). For the same molecule, the GI50 (NCI-H522) was 25.9 µM (inactive), the GI50 (SNB-19) was > 100 µM (inactive) and the GI50 (HCT-116) was > 100 µM (inactive). For the same molecule, the GI50 (A549) was > 100 µM (inactive), the GI50 (UACC-62) was 34.8 µM (inactive) and the GI50 (OVCAR-4) was > 100 µM (inactive). For the same molecule, the GI50 (SK-MEL-2) was 33.7 µM (inactive), the GI50 (XF498) was 12.9 µM (inactive) and the GI50 (CCRF-CEM) was > 100 µM (inactive). The GI50 (NCI-H460) was 46.2 µM (inactive), the GI50 (RXF 631) was > 100 µM (inactive) and the GI50 (COLO 205) was 35.7 µM (inactive). The GI50 (M19-MEL) was 77.1 µM (inactive).
